Legend:
[1] = target: T1, recombinant human A2a adenosine receptors (Homo sapiens, UniProt P29274); test: Radioligand competitive binding, human A2a receptor ([3H]-ZM241385)
T1 construct: purchased PerkinElmer (Boston, Mass.); host or cells: HEK 293
Method: Binding assays were terminated by filtration.
Membranes (40-70 μg membrane protein), radioligands, and varying concentrations of competing ligands were incubated in triplicate in 0.1 ml buffer HE plus 2 units/mL adenosine deaminase for 2.5 hours at 21° C. The radioligands used for competitive binding assays were: [^3H]-8-cyclopentyl-1,3-dipropyxanthine ([^3H]-DPCPX) (NEN, Boston, Mass.) for A1 and A2b adenosine receptors, [^3H]-4-(2-[7-amino-2-(furyl)(1,2,4)triazole(2,3-a)(1,3,5)triazin-5-ylaminoethyly)phenol ([^3H] ZM241385) for A2a adenosine receptors (Tocris, Bristol, UK), and [^125Iodine]-labeled N6-(4-aminobenzyl)-9-(5-(methylcarbonyl)-β-D-ribofuranosyl) adenine ([^125I]-AB-MECA) or [^3H]-R-N^6-phenylisopropyladenosine (H^3R]-R-PIA) for A3 adenosine receptors (both from NEN, Boston, Mass.). Nonspecific binding was measured in the presence of 10 μM 5′N ethylcarboxamidoadenosine (NECA, from RBI-Sigma, Natick, Mass.) for A1 and A2b receptors, or 10 μM xanthine amino congener (XAC, from RBI-Sigma, Natick, Mass.) for A2a receptors. Binding assays were terminated by filtration over Whatman GF/C glass fiber filters using a BRANDEL cell harvester (Gaithersburg, Md.).

[2] = target: T2, recombinant canine A2a adenosine receptors (Canis lupus familiaris, UniProt P11617); test: Radioligand competition binding, canine A2a receptor (3H-ZM 241385), transfected HEK 293 membranes; conditions: canine; mean ± SEM, n = 3; 3H-ZM 241385; read-out: Ki, A2a
T2 construct: expressed in transfected cells
T2 sequence (P11617 whole entry): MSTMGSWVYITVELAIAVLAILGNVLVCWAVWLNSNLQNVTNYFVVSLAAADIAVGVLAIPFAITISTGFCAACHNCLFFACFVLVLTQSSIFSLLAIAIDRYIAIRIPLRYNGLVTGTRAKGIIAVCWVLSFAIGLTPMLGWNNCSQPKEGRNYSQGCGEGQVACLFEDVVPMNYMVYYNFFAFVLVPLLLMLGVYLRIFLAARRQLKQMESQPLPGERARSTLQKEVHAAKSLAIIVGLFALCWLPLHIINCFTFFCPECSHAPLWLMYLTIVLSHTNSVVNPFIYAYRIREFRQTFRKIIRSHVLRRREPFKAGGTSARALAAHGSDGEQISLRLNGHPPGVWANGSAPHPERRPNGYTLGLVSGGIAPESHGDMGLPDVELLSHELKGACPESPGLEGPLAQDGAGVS
Method: Membranes (40-70 μg membrane protein), radioligands, and varying concentrations of competing ligands were incubated in triplicate in 0.1 ml buffer HE plus 2 units/mL adenosine deaminase for 2.5 hours at 21° C. […] Nonspecific binding was measured in the presence of 10 μM 5′N ethylcarboxamidoadenosine (NECA, from RBI-Sigma, Natick, Mass.) for A1 and A2b receptors, or 10 μM xanthine amino congener (XAC, from RBI-Sigma, Natick, Mass.) for A2a receptors. Binding assays were terminated by filtration over Whatman GF/C glass fiber filters using a BRANDEL cell harvester (Gaithersburg, Md.).

[3] = target: T3, human A2B adenosine receptors (Homo sapiens, UniProt P29275); test: FLIPR calcium functional assay, human A2b receptor in HEK-293 cells (5 μM NECA); format: cell-based; design: expressed in transfected cells; host or cells: HEK-293; conditions: HEK293 cells, null method
T3 sequence (P29275 1-332): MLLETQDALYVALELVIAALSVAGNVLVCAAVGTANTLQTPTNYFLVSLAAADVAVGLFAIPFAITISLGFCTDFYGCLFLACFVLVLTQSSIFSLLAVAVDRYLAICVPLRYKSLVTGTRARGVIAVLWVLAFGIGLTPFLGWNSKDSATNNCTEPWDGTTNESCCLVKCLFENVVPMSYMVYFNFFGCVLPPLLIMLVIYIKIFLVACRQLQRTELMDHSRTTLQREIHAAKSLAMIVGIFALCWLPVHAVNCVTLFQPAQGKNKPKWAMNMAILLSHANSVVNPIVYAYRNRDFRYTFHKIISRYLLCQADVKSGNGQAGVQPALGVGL
Method: Cells were seeded into 96-well tissue culture plates with black walls and clear bottoms, and cultured to an 80-0.90% confluent monolayer. Without removing the media, an equal volume of dye (from calcium assay kit purchased from Molecular Devices) was added. Cell plates were incubated for 1 hour at 37° C. and were then transferred to the-FLIPR unit (Molecular Devices).
For assay of recombinant human and rat A2b adenosine receptors, HEK-293 cells were incubated with increasing doses of agonist (5′N-ethylcarboxamidoadenosine, NECA) to determine the concentration of agonst that produced 50% of a maximum response.
The FLIPR integrates an argon laser excitation source, a 96-well pipettor, and a detection system utilizing a CCD (Charged Coupled Device) imaging camera. […] Fluorescence data were collected at 0.1-sec intervals before and after simultaneous rapid addition of compounds to the 96-well plate. Results were read as relative fluorescence units (RFU).
In FLIPR functional assays, agonist concentration-response curves were fitted to a logistic equation by use of the nonlinear regression program in Prizm GraphPad. […] A Schild analysis was performed to estimate the potency of the compounds as antagonists (pA2). […]

T1 sequence (P29274 whole entry): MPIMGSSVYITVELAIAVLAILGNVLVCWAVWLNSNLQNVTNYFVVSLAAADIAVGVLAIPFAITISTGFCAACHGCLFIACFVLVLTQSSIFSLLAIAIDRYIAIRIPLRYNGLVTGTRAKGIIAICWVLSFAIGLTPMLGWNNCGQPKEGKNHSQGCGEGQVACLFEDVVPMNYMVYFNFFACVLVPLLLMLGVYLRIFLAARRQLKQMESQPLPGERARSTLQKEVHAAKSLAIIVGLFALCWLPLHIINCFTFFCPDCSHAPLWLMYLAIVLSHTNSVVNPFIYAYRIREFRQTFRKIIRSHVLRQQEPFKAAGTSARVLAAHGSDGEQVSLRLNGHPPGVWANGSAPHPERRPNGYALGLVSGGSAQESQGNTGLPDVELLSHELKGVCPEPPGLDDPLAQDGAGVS

CCCn1c(=O)c2[nH]c(C34CCC(CCC(=O)O)(CC3)CC4)nc2n(CCC)c1=O [BG 9928, 3-[4-(2,6-dioxo-1,3-dipropyl-2,3,6,7-tetrahydro-1H-purin-8-yl)-bicyclo[2.2.2]oct-1-yl]-propionic acid]
Ki [1]: 4.06 µM
Ki [2]: 4.31 µM
Kb [3]: 0.00336 µM
